Laboratory results taken from patent US11203601B2, “Tricyclic compounds as glycogen synthase kinase 3 (GSK3) inhibitors and uses thereof” (The Broad Institute, Inc., priority 2017, dated 2021).

Tests used:
Assay in all cases: Carna kinome panel
Assay type in all cases: biochemical
CK1γ2 = CK1γ2 (Homo sapiens (Human), UniProt P78368); settings: read-out: % Inhibition at 10 μM of the test compound
PIM2 = PIM2 (Homo sapiens (Human), UniProt Q9P1W9); settings: read-out: % Inhibition at 10 μM of the test compound
HCK = HCK (Homo sapiens (Human), UniProt P08631); settings: read-out: % Inhibition at 10 μM of the test compound
FGFR4(V550L) = FGFR4(V550L) (Homo sapiens (Human), UniProt P22455, V550L); settings: read-out: % Inhibition at 10 μM of the test compound
PAK1 = PAK1 (Homo sapiens (Human), UniProt Q13153); settings: read-out: % Inhibition at 10 μM of the test compound
ACK = ACK (Homo sapiens (Human), UniProt Q07912); settings: read-out: % Inhibition at 10 μM of the test compound
p38γ = p38γ (Homo sapiens (Human), UniProt P53778); settings: read-out: % Inhibition at 10 μM of the test compound
LYNa = LYNa (Homo sapiens (Human), UniProt P07948); settings: read-out: % Inhibition at 10 μM of the test compound
NuaK1 = NuaK1 (Homo sapiens (Human), UniProt O60285); settings: read-out: % Inhibition at 10 μM of the test compound
IKKε = IKKε (Homo sapiens (Human), UniProt Q14164); settings: read-out: % Inhibition at 10 μM of the test compound
TAOK2 = TAOK2 (Homo sapiens (Human), UniProt Q9UL54); settings: read-out: % Inhibition at 10 μM of the test compound
COT_Cascade = test system: COT_Cascade
Method: (§1) Briefly, a selection of compounds was screened against a panel of kinases at a single concentration of 10 μM. […] This was completed using one of two assays, depending on the kinase being examined: 1) IMAP Assay. A solution of 4× inhibitor, 4× substrate/ATP/metal solution and 2× kinase solution was prepared with assay buffer (20 mM HEPES, 0.01% Tween-20, 2 mM DTT, pH 7.4) and mixed, then incubated in 384-well black plates for 1 hour at room temperature. The IMAP binding reagent (IMAP Screening Express kit; Molecular Devices) was added to each well and incubated for 30 minutes. […] 2) Off-Chip Mobility Shift Assay (MSA). A solution of 4× inhibitor, 4× substrate/ATP/metal solution and 2× kinase solution was prepared with assay buffer (20 mM HEPES, 0.01% Triton X-100, 2 mM DTT, pH 7.5) and mixed, then incubated in 384-well plates for 1 or 5 hours depending on the kinase, at room temperature. Termination buffer (QuickScout Screening assist MSA; Carna Biosciences) was added to each well. The entire reaction mixture was then applied to a LabChip3000 system (Caliper Life Science), and the product and substrate peptide peaks were separated and quantified. […] The entire reaction mixture was then applied to a LabChip3000 system (Caliper Life Science), and the product and substrate peptide peaks were separated and quantified.

AKT2 = AKT2 (Homo sapiens (Human), UniProt P31751); settings: read-out: % Inhibition at 10 μM of the test compound
MET(D1228H) = MET(D1228H) (Homo sapiens (Human), UniProt P08581, D1228H); settings: read-out: % Inhibition at 10 μM of the test compound
CK2α2/β = CK2α2/β (Homo sapiens (Human), UniProt P19784); settings: read-out: % Inhibition at 10 μM of the test compound
Method: as §1

PHKG1 = PHKG1 (Homo sapiens (Human), UniProt Q16816); settings: read-out: % Inhibition at 10 μM of the test compound
TSSK3 = TSSK3 (Homo sapiens (Human), UniProt Q96PN8); settings: read-out: % Inhibition at 10 μM of the test compound
FAK = FAK (Homo sapiens (Human), UniProt Q05397); settings: read-out: % Inhibition at 10 μM of the test compound
DYRK1A = DYRK1A (Homo sapiens (Human), UniProt Q13627); settings: read-out: % Inhibition at 10 μM of the test compound
RSK1 = RSK1 (Homo sapiens (Human), UniProt Q15418); settings: read-out: % Inhibition at 10 μM of the test compound
DDR1 = DDR1 (Homo sapiens (Human), UniProt Q08345); settings: read-out: % Inhibition at 10 μM of the test compound
MAP4K2 = MAP4K2 (Homo sapiens (Human), UniProt Q12851); settings: read-out: % Inhibition at 10 μM of the test compound
CHK1 = CHK1 (Homo sapiens (Human), UniProt O14757); settings: read-out: % Inhibition at 10 μM of the test compound
PAK5 = PAK5 (Homo sapiens (Human), UniProt Q9P286); settings: read-out: % Inhibition at 10 μM of the test compound
CK1δ = CK1δ (Homo sapiens (Human), UniProt P48730); settings: read-out: % Inhibition at 10 μM of the test compound
PEK = PEK (Homo sapiens (Human), UniProt Q9NZJ5); settings: read-out: % Inhibition at 10 μM of the test compound
CLK3 = CLK3 (Homo sapiens (Human), UniProt P49761); settings: read-out: % Inhibition at 10 μM of the test compound
NDR1 = NDR1 (Homo sapiens (Human), UniProt Q15208); settings: read-out: % Inhibition at 10 μM of the test compound
PAK4 = PAK4 (Homo sapiens (Human), UniProt O96013); settings: read-out: % Inhibition at 10 μM of the test compound
IKKα = IKKα (Homo sapiens (Human), UniProt O15111); settings: read-out: % Inhibition at 10 μM of the test compound
PGK = PGK (Homo sapiens (Human), UniProt Q13976); settings: read-out: % Inhibition at 10 μM of the test compound
EPHA3 = EPHA3 (Homo sapiens (Human), UniProt P29320); settings: read-out: % Inhibition at 10 μM of the test compound
RSK2 = RSK2 (Homo sapiens (Human), UniProt P51812); settings: read-out: % Inhibition at 10 μM of the test compound
FYN(isoform a) = FYN(isoform a) (Homo sapiens (Human), UniProt P06241); settings: read-out: % Inhibition at 10 μM of the test compound
MAPKAPK3 = MAPKAPK3 (Homo sapiens (Human), UniProt Q16644); settings: read-out: % Inhibition at 10 μM of the test compound
NEK6 = NEK6 (Homo sapiens (Human), UniProt Q9HC98); settings: read-out: % Inhibition at 10 μM of the test compound
JAK2 = JAK2 (Homo sapiens (Human), UniProt O60674); settings: read-out: % Inhibition at 10 μM of the test compound
BTK = BTK (Homo sapiens (Human), UniProt Q06187); settings: read-out: % Inhibition at 10 μM of the test compound
MAP2K5_Cascade = MAP2K5_Cascade (Homo sapiens (Human), UniProt Q13163); settings: read-out: % Inhibition at 10 μM of the test compound
RET(Y791F) = RET(Y791F) (Homo sapiens (Human), UniProt P07949, Y791F); settings: read-out: % Inhibition at 10 μM of the test compound
MAP2K3_Cascade = MAP2K3_Cascade (Homo sapiens (Human), UniProt P46734); settings: read-out: % Inhibition at 10 μM of the test compound
Chain of MAP2K3_Cascade (P46734 whole entry): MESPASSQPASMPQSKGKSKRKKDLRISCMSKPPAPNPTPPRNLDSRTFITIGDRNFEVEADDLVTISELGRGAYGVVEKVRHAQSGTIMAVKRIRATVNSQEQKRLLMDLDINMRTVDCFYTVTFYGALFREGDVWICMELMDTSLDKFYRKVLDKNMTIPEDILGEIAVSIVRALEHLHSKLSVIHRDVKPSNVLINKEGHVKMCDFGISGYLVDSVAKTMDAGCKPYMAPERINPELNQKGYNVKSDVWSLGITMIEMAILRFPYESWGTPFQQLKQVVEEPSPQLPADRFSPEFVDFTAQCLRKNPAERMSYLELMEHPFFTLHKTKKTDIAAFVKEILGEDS

Chain of p38γ (P53778 whole entry): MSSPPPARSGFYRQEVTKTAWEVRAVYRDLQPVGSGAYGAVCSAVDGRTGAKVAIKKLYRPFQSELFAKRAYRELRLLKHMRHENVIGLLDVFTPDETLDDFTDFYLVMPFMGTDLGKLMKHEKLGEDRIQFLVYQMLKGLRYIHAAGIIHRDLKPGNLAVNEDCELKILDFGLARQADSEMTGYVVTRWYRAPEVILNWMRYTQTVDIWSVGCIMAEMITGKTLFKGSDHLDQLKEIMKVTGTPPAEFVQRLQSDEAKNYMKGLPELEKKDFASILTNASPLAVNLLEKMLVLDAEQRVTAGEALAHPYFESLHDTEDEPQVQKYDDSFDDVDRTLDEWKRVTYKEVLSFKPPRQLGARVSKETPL
Chain of FYN(isoform a) (P06241 whole entry, canonical isoform): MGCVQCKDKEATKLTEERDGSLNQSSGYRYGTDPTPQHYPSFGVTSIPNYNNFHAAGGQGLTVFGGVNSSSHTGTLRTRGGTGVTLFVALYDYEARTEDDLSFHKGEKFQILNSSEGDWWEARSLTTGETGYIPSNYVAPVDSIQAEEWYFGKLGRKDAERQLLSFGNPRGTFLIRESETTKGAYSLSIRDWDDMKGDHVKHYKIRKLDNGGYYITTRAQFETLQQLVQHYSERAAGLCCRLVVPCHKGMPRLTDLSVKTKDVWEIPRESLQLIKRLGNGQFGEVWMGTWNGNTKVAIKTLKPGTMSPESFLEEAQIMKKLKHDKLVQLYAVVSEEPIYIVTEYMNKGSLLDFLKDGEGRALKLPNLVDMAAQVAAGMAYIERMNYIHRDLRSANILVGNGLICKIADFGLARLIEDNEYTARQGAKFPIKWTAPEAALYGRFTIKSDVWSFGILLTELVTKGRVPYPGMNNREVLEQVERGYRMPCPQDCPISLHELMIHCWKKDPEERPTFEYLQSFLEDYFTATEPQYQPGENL
Chain of TSSK3 (Q96PN8 whole entry): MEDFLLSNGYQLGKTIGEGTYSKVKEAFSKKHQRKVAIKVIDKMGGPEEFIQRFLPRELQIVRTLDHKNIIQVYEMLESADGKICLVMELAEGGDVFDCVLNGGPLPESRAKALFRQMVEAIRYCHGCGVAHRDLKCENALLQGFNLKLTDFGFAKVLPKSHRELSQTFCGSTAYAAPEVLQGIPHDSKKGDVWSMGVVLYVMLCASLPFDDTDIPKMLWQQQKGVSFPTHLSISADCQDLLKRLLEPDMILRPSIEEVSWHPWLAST
Chain of CHK1 (O14757 whole entry): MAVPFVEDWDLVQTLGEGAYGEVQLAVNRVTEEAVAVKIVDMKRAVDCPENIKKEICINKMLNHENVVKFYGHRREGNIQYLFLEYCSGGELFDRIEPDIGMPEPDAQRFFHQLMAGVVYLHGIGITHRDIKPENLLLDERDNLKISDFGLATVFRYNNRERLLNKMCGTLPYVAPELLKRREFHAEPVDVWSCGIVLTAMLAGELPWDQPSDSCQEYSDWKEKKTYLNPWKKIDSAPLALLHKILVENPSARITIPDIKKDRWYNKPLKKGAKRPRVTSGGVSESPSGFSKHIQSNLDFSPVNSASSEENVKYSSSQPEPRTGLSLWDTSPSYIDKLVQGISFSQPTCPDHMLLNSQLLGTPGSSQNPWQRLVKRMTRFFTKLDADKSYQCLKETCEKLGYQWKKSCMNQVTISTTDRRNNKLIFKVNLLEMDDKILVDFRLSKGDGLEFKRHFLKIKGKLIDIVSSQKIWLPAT
Chain of ACK (Q07912 whole entry): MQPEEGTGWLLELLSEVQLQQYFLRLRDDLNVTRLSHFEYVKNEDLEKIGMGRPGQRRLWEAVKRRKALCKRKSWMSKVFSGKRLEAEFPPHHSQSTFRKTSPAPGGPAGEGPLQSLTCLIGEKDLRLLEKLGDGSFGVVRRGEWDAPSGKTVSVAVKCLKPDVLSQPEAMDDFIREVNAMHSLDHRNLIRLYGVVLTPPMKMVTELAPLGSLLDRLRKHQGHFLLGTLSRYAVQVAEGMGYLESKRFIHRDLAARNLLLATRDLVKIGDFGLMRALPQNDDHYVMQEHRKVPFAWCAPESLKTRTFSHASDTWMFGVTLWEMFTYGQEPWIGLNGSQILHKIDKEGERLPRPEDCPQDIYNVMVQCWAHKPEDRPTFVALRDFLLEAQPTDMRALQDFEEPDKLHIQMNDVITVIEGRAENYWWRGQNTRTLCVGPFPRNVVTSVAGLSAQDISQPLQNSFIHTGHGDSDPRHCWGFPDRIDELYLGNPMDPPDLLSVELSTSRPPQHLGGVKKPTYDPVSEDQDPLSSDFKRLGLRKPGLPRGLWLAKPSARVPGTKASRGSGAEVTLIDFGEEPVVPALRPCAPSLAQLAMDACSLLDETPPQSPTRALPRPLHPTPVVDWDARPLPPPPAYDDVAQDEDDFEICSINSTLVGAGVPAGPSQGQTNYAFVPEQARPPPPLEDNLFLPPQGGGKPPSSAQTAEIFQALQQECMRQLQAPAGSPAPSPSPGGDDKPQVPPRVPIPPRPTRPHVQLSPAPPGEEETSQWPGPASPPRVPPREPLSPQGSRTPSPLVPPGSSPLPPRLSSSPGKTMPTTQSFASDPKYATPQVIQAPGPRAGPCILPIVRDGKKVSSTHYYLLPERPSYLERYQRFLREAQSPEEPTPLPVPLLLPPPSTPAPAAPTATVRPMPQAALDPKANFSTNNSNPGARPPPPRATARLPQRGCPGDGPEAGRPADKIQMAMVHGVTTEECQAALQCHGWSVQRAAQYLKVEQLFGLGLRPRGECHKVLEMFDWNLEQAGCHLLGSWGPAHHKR
Chain of PAK4 (O96013 whole entry): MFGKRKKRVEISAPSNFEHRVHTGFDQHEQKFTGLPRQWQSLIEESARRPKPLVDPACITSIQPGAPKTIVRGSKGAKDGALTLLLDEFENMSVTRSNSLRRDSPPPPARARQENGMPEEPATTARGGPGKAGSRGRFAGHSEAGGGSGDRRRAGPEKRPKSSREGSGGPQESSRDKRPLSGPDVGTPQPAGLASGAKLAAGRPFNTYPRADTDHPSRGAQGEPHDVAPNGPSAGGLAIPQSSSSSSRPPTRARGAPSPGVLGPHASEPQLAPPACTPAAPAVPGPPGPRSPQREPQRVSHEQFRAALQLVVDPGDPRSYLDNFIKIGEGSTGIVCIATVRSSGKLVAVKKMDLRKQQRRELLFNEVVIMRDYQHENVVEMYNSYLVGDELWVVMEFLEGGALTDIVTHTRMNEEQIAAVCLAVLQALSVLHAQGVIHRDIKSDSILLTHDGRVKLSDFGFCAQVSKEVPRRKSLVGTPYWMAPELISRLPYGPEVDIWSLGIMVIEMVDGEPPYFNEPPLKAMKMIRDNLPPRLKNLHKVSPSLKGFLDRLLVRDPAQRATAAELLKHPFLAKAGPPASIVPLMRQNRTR
Chain of NuaK1 (O60285 whole entry): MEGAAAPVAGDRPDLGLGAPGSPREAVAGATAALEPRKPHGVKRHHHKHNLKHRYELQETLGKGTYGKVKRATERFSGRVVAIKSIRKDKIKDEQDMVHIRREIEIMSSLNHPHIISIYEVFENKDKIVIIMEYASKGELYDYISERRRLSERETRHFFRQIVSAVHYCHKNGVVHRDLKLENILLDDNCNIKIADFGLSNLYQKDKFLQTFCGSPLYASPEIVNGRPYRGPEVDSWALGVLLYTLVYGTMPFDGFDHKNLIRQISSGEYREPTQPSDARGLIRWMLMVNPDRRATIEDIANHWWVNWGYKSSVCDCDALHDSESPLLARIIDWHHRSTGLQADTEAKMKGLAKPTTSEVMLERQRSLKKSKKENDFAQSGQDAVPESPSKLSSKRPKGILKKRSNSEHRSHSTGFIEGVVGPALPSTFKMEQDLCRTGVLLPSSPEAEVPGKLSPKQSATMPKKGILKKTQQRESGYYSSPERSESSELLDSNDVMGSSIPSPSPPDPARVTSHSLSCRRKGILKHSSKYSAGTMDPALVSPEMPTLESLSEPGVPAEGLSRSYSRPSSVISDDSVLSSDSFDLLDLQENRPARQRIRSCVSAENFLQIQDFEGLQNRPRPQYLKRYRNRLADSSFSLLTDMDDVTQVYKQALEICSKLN
Chain of NDR1 (Q15208 whole entry): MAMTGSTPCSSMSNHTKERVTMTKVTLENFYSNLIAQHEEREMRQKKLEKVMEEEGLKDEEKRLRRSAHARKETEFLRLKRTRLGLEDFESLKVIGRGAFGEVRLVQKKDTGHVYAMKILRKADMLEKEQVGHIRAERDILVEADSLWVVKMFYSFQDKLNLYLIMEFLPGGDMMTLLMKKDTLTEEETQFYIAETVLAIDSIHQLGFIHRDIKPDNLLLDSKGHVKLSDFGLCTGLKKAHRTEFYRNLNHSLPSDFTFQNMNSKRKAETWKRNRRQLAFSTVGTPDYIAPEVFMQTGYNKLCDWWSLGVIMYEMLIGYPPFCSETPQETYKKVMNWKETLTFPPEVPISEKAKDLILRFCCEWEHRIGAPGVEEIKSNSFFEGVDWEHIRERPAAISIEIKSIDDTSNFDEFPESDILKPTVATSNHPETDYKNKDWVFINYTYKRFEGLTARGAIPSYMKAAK

CCC1(c2ccccc2)C2=C(CC(C)(C)CC2=O)Nc2ncsc21 (centres unmarked) [Compound 1, 9-Ethyl-6,6-dimethyl-9-phenyl-5,6,7,9-tetrahydrothiazolo[4,5-b]quinolin-8(4H)-one]
inhibition at 10 µM (CK1γ2): 3.1% | inhibition at 10 µM (PIM2): 0.3% | inhibition at 10 µM (HCK): -3% | inhibition at 10 µM (FGFR4(V550L)): 3.3% | inhibition at 10 µM (PAK1): 0.3% | inhibition at 10 µM (ACK): -4.1% | inhibition at 10 µM (p38γ): 8.9% | inhibition at 10 µM (LYNa): 6% | inhibition at 10 µM (NuaK1): -9.2% | inhibition at 10 µM (IKKε): 4.2% | inhibition at 10 µM (TAOK2): -5.9% | % Inhibition at 10 μM of the test compound (COT_Cascade): −1.5% | inhibition at 10 µM (AKT2): 1% | inhibition at 10 µM (MET(D1228H)): -7.7% | inhibition at 10 µM (CK2α2/β): -11.4% | inhibition at 10 µM (PHKG1): 5.9% | inhibition at 10 µM (TSSK3): -5.1% | inhibition at 10 µM (FAK): -2% | inhibition at 10 µM (DYRK1A): -5.8% | inhibition at 10 µM (RSK1): -2% | inhibition at 10 µM (DDR1): 1.4% | inhibition at 10 µM (MAP4K2): 1.1% | inhibition at 10 µM (CHK1): 7% | inhibition at 10 µM (PAK5): 2.9% | inhibition at 10 µM (CK1δ): 8.2% | inhibition at 10 µM (PEK): -6% | inhibition at 10 µM (CLK3): 3.9% | inhibition at 10 µM (NDR1): 0.2% | inhibition at 10 µM (PAK4): 17% | inhibition at 10 µM (IKKα): -1.6% | inhibition at 10 µM (PGK): 0.9% | inhibition at 10 µM (EPHA3): 22.5% | inhibition at 10 µM (RSK2): 1.4% | inhibition at 10 µM (FYN(isoform a)): 1.8% | inhibition at 10 µM (MAPKAPK3): -15.5% | inhibition at 10 µM (NEK6): 20.9% | inhibition at 10 µM (JAK2): -0.9% | inhibition at 10 µM (BTK): -1.6% | inhibition at 10 µM (MAP2K5_Cascade): 4.3% | inhibition at 10 µM (RET(Y791F)): -1.6% | inhibition at 10 µM (MAP2K3_Cascade): 2.9%
